Test results reported in US20250090629A1, “ALLEVIATING DRUG NEPHROTOXICITY” (The Trustees of Indiana University, priority 2021, published 2025).

Key:
[1] = tested on: fluid phase and Megalin mediated clathrin mediated endocytosis in S1 and non-S1 proximal tubule segments; assay: Intra-vital 2-photon quantification of proximal tubule uptake of fluorescent endocytic markers after RAP or vehicle; format: in vivo, rat
Method: Rats were given either RAP or saline vehicle followed by a bolus containing a fluid phase endocytic marker (10,000 MW Cascade Blue Dextra, CB-dex) and a receptor mediated uptake marker (Texas Red Rat Serum Albumin, Rat Albumin). […] The results of this experiment are illustrated in FIG. 3. […] Ten minutes later, a bolus of Texas Red rat serum albumin (TR-RSA) and 10 kDa Cascade Blue dextran was given. […] Images collected from these studies at approximately 15, 30, and 60 minutes post initial infusion were quantified for TR-RSA and 10 kDa dextran uptake in either vehicle or RAP treated rats, in both S1 and non-S1 proximal tubule segments. Values were reported as normalized fluorescence, with the values normalized to the highest average value in the study group. […] The differences between vehicle and RAP treated were significant at all three time points studied and in both the S1 and non-S1 proximal tubule segments. […] The lower glomerular sieving coefficient of the RSA results in less RSA filtration and this a slower, protracted uptake that appears linear over time, with the S1 segment having the greatest accumulation.

[2] = tested on: uninephrectomy chronic kidney disease model in Munich Wister Fromter rats; assay: Gentamicin induced nephrotoxicity in uninephrectomy chronic kidney disease rat model, with or without RAP; conditions: for Serum Cr: daily gentamicin 100 mg/kg intraperitoneal with RAP 40 mg/kg intravenous, p<0.01 vs without RAP; for Urinary protein: CKD pretreatment baseline 221±40
Method: Rats with a Chronic Kidney Disease (CKD) background were given either saline or 40 mg/kg RAP. […] Serum creatinine, an indicator of renal function, was measured in both rat populations at day 0, 3, 4, 5, and 6.

[3] = tested on: fluid phase and Megalin mediated clathrin mediated endocytosis in S1 and non-S1 proximal tubule segments; assay: Intra-vital 2-photon quantification of proximal tubule uptake of fluorescent endocytic markers after RAP or vehicle; format: in vivo, rat; remark: listed apart in the source
[4] = RAP vs saline vehicle, 15', 30', 60' post bolus, S1 and non-S1 segments, FIG. 3
[5] = S1 segment, 60 minutes post initial bolus infusion, RAP 40 mg/Kg, FIG. 4B
[6] = normal rats, over 60 minutes, RAP 40 mg/kg intravenous

Substance	10,000 MW Cascade Blue Dextran (CB-dex) proximal tubule uptake and accumulation [1, 4]	Texas Red Rat Serum Albumin proximal tubule uptake and accumulation [1, 4]	10 kDa dextran accumulation in single plane images [1, 5]	TR-RSA uptake in single plane images [1, 5]	Reduction of 10 kDa Cascade Blue dextran uptake vs vehicle ([1]; S1 segment, RAP 40 mg/Kg, FIG. 4C)	RSA uptake (normalized fluorescence) compared to vehicle treated rats ([1]; about 15, 30 and 60 minutes, both S1 and non-S1 proximal tubule segments, FIG. 4E, 4F)	Reduction of 10 kDa Cascade Blue dextran uptake vs vehicle ([1]; non-S1 proximal tubule segments, RAP 40 mg/Kg, FIG. 4D) [fold]	Reversibility of the reduction of S1 proximal tubule uptake ([1]; normal rats)	Reduction of S1 proximal tubule albumin uptake [1, 6] [%]	Reduction of S1 proximal tubule dextran uptake [1, 6] [%]	Nature of the inhibition of endocytosis ([1]; without causing lasting effects on kidney function)	Serum creatinine (indicator of renal function), change over time ([2]; CKD rats, RAP 40 mg/kg plus gentamicin 100 mg/kg intraperitoneal daily for five days, day 0, 3, 4, 5, 6, FIG. 1)	Serum Cr ([2]; day 5) [mg/dL]	Serum Cr ([2]; day 6) [mg/dL]	24-hour creatinine clearance ([2]; gentamicin with RAP, CKD pretreatment baseline 0.91=0.22 ml/min) [mL/min]	Urinary protein ([2]; gentamicin with RAP) [mg/ml/100 μm wt]	Texas Red Gentamicin accumulation (average fluorescence intensity) ([3]; RAP 40 mg/kg vs saline vehicle, then single bolus of Texas Red Gentamicin, S1 and non-S1 proximal tubule segments, FIG. 2)	Reduction of S1 proximal tubule gentamicin uptake [3, 6] [%]	Urinary protein ([2]; gentamicin without RAP)
RAP: 39 kD protein, molecular chaperone for LDL receptor-related proteins such as Megalin; endocytosis inhibitor; SEQ ID NO 1-3 (human, rat, mouse)	reduction	reduction	only faint accumulation	virtually no uptake	over 5 fold	significantly reduced	2	rapid fully reversible	80	67	temporary and reversible	did not exhibit the same increase in serum creatinine	1.4 ± 0.5	1.5 ± 0.5	0.49 ± 0.16	488	Decreased	62	
gentamicin [reference compound]																			2,512 mg/ml/100 μm wt
